Results: the OPERA property sets (Mansouri et al. 2018)

Conditions: for log10 BCF / log10 biotransformation half-life (days): fish

SMILES	boiling point	melting point	further results
Clc1ccccc1Cl	180 °C	-16.7 °C	log10 Henry constant (atm·m³/mol): -2.72; log10 Koa: 4.36; log10 Koc (L/kg): 2.56; log10 vapour pressure (mmHg): 0.134; ready biodegradability: not readily biodegradable; log10 BCF: 2.43; log10 biotransformation half-life (days): 0.5
Clc1cc(Cl)c(Cl)c(-c2cc(Cl)c(Cl)cc2Cl)c1	–	–	log10 Henry constant (atm·m³/mol): -4.6; log10 biotransformation half-life (days): 2.4
CCCCC(C#N)(Cn1ccnc1)c1ccccc1 (stereo unspecified)	–	161 °C	–
Clc1ccc2ccccc2c1Cl	296 °C	36 °C	log10 Koa: 6.89; log10 vapour pressure (mmHg): -2.7
O=C(c1cccs1)c1cccs1	326 °C	90 °C	–
Cc1csc(C)c1C	162 °C	-26.2 °C	–
COC(=O)NN	–	73 °C	–
O=c1oc2ccccc2c(O)c1C1CCCc2ccccc21 (stereo unspecified)	–	172 °C	log10 vapour pressure (mmHg): -10.2
CCC(Nc1ncnc(C)c1Cl)c1ccc(OC(F)F)cc1 (stereo unspecified)	–	47.3 °C	log10 vapour pressure (mmHg): -5.62
CCCCCCCCCC(=O)OC(=O)CCCCCCCCC	–	24.7 °C	–
CCCCCCCOc1ccc(O)cc1	–	61.5 °C	–
C/C=C\CC(C)(C)C	107 °C	–	–
O=C1c2ccccc2C(=O)c2c(NCCO)cccc21	–	168 °C	log10 vapour pressure (mmHg): -11
ClCc1ccc2c(c1)OCO2	–	20.5 °C	–
CCCCCCC(O)CCC (stereo unspecified)	210 °C	-11 °C	–
O=C(O)c1cccc(C(=O)O)c1C(=O)O	–	200 °C	–
CC=CCCCC	–	–	log10 vapour pressure (mmHg): 1.68
Nc1ccc(Br)cc1[N+](=O)[O-]	–	112 °C	–
NCCNCc1ccccc1	–	–	ready biodegradability: not readily biodegradable
Brc1ccc(Oc2c(Br)cccc2Br)c(Br)c1	–	–	log10 BCF: 5.88
C=CC(=O)NCOCCCC	–	–	ready biodegradability: readily biodegradable
CC(=O)CC(=O)c1ccccc1	262 °C	56 °C	ready biodegradability: readily biodegradable
CC1CCC(C)C(C)C1C (stereo unspecified)	–	-75 °C	log10 vapour pressure (mmHg): 0.117
C=C(C)C1CC=C(C)C(=O)C1 (stereo unspecified)	230 °C	–	–

SMILES	boiling point	melting point	further results
c1ccc2[nH]ccc2c1	254 °C	52.5 °C	log10 vapour pressure (mmHg): -1.91; ready biodegradability: readily biodegradable
BrCI	140 °C	–	–
C1CCC(CCCC2CCCCC2)CC1	292 °C	-17 °C	–
Cc1ccc2nc(C)cc(C)c2c1	280 °C	68 °C	–
CCC1(c2ccccc2)NC(=O)N(C)C1=O (stereo unspecified)	–	136 °C	–
CNC(=O)Oc1cc(C)cc(C(C)C)c1	–	87 °C	log10 Koc (L/kg): 2.48; log10 vapour pressure (mmHg): -4.52
CCCCCCCCCCCCCCCCCC(=O)OC	370 °C	39.1 °C	log10 vapour pressure (mmHg): -4.87
CCOC(=O)c1ccc(C(=O)OCC)cc1	302 °C	44 °C	–
CCCCCCCCCCCC(=O)CCCCCCCCCCC	–	70.2 °C	–
Cc1ccccc1NC=O	288 °C	62 °C	–
NNC(N)=O	–	96 °C	–
O=C(CCCN1CCC(O)(c2ccc(Cl)cc2)CC1)c1ccc(F)cc1	–	152 °C	–
CNC(=O)Oc1cc(C)c(N(C)C)c(C)c1	–	85 °C	log10 Koc (L/kg): 2.48; log10 BCF: 1.42
COc1cccc(Br)c1	211 °C	–	–
FC(F)(F)C(F)(F)C(Cl)Cl	51.1 °C	-94 °C	log10 Henry constant (atm·m³/mol): -0.299; log10 vapour pressure (mmHg): 2.38
Nc1cc(Cl)ccc1[N+](=O)[O-]	–	128 °C	–
CC[N+](=O)[O-]	114 °C	-89.5 °C	log10 Henry constant (atm·m³/mol): -4.32; log10 Koa: 2.88; log10 vapour pressure (mmHg): 1.32
CC(C)=NN=C(C)C	133 °C	-12.5 °C	–
O=C1OC(=O)c2c(Cl)c(Cl)c(Cl)c(Cl)c21	–	254 °C	ready biodegradability: not readily biodegradable
CCCCCCOC(=O)CC	190 °C	-57.5 °C	–
Nc1ccccc1O	–	–	ready biodegradability: not readily biodegradable
Cc1ccc(C(C)C)c(O)c1	232 °C	51.5 °C	log10 vapour pressure (mmHg): -2.66; ready biodegradability: not readily biodegradable
O=C(O)CF	168 °C	35.2 °C	log10 Henry constant (atm·m³/mol): -7.91
